Counter-ions that a name gives are not always drawn.
Assay: in vitro
Settings: rat, gh3-tre-luc cells, AC50 (uM) modified / 1000

Compound | CC50 at 24 h [µM]
c1ccc(CNc2ncnc3nc[nH]c23)cc1 [N-Benzyladenine] | > 90
Cc1ccc(NC(N)=O)cc1 [p-Tolylurea] | > 90
Cc1cccc2c1cc1ccc3cccc4ccc2c1c34 [7-Methylbenzo(a)pyrene] | > 90
CC(=O)Nc1ccc(/C=N/NC(N)=S)cc1 [Amithiozone] | > 50
CCCCN(CCCC)C(=S)SSC(=S)N(CCCC)CCCC [Tetrabutylthiuram disulfide] | > 90
CC(C)c1nc(N(C)S(C)(=O)=O)nc(-c2ccc(F)cc2)c1/C=C/[C@@H](O)C[C@@H](O)CC(=O)O [Rosuvastatin calcium] | > 50
CC1=CCC(C(C)C)=CC1 [gamma-Terpinene] | > 90
CN(C)C1CSSSC1 [Thiocyclam oxalate] | > 90
NCCN1CCOCC1 [2-Morpholinoethylamine] | > 90
CC(C)COC(=O)C(C)C [Isobutyl isobutyrate] | > 90
c1coc(CNc2ncnc3[nH]cnc23)c1 [Kinetin] | > 90
Cc1cccc2nccnc12 [5-Methylquinoxaline] | > 90
CCCCCCCC(=O)OC [Methyl octanoate] | > 90
CO[C@@H]1[C@@H](O[C@@H]2O[C@H](C)[C@@H](O[C@H]3C[C@@](C)(O)[C@@H](OC(=O)CC(C)C)[C@H](C)O3)[C@H](N(C)C)[C@H]2O)[C@@H](CC=O)C[C@@H](C)[C@@H](O)/C=C/C=C/C[C@@H](C)OC(=O)C[C@H]1OC(C)=O [Josamycin] | > 20
CC(C)O [Isopropanol] | > 100
CCOC(=O)/C=C\C(=O)OCC [Diethyl maleate] | > 90

Compound | CC50 at 24 h [µM]
CCCCCCCCCC[N+](C)(C)CCCCCCCCCC [Didecyldimethylammonium chloride] | 10.7
CC(C)Cc1ccc(C(C)C(=O)O)cc1 (stereo not drawn) [Ibuprofen] | > 90
CC(=O)O[C@H]1C(=O)[C@@]2(C)[C@H]([C@H](OC(=O)c3ccccc3)[C@]3(O)C[C@H](OC(=O)[C@H](O)[C@@H](NC(=O)c4ccccc4)c4ccccc4)C(C)=C1C3(C)C)[C@]1(OC(C)=O)CO[C@@H]1C[C@@H]2O [Paclitaxel] | 0.25
CCCCC(CC)CNC(=N)NC(=N)NCCCCCCNC(=N)NC(=N)NCC(CC)CCCC (stereo not drawn) [Alexidine dihydrochloride] | 7.36
CC[C@H]1OC(=O)[C@H](C)[C@@H](O[C@H]2C[C@@](C)(OC)[C@@H](O)[C@H](C)O2)[C@H](C)[C@@H](O[C@@H]2O[C@H](C)C[C@H](N(C)C)[C@H]2O)[C@](C)(OC)C[C@@H](C)C(=O)[C@H](C)[C@@H](O)[C@]1(C)O [Clarithromycin] | > 90
COc1ccc(C)cc1[N+](=O)[O-] [1-Methoxy-4-methyl-2-nitrobenzene] | > 90
Cc1c(OCC(F)(F)F)ccnc1C[S+]([O-])c1nc2ccccc2[nH]1 (stereo not drawn) [Lansoprazole] | > 90
CN1CCN(CCCN2c3ccccc3Sc3ccc(Cl)cc32)CC1 [Prochlorperazine dimaleate] | 5.73
COc1c(N2C[C@@H]3CCCN[C@@H]3C2)c(F)cc2c(=O)c(C(=O)O)cn(C3CC3)c12 [Moxifloxacin hydrochloride] | > 50
COC(C)(C)OC [2,2-Dimethoxypropane] | > 90
Cc1cc(N)c(S(=O)(=O)O)cc1Cl [2-Amino-5-chloro-4-methylbenzenesulfonic acid] | > 90
CC1(S(=O)(=O)O)CC(=O)c2ccccc2C1=O (stereo not drawn) [Menadione sodium bisulfite] | 12.2
O=C1OCCO1 [1,3-Dioxolan-2-one] | > 100
CCCCC(CC)COC(=O)c1ccccc1O (stereo not drawn) [2-Ethylhexyl salicylate] | > 50
CC(=O)CCCCn1c(=O)c2c(ncn2C)n(C)c1=O [Pentoxifylline] | > 20

Same assay, conditions: rat, gh3-tre-luc cells, AC50 (uM) modified / 1000, Tox21_110001=Tox21_112889; viability, 1 nM T3 present, 24 h

Compound | CC50 at 24 h [µM]
CNC(C)Cc1ccc2c(c1)OCO2 (stereo not drawn) [1-(1,3-Benzodioxol-5-yl)-N-methylpropan-2-amine hydrochloride] | > 100

Same assay, conditions: rat, gh3-tre-luc cells, AC50 (uM) modified / 1000, Tox21_110001=Tox21_300741; viability, 1 nM T3 present, 24 h

Compound | CC50 at 24 h [µM]
N#Cc1ccncc1 [4-Pyridinecarbonitrile] | > 100

Source: publication PMC6792352, “Limited Chemical Structural Diversity Found to Modulate Thyroid Hormone Receptor in the Tox21 Chemical Library” (Environmental Health Perspectives, 2019)
